Experiments:
[1] = Solubility of RPL554 salts in saline solutions, water and aqueous buffer solutions at 25° C. (HPLC); assay type: physicochemical; details: 24 hours
Experimental: The behaviour of salts of RPL554 were examined under the following conditions: • Phosphate buffered to pH 3.5 in saline, 0.9% w/w at 25° C. • Acetate buffered to pH 4.5 in saline, 0.9% w/w at 25° C. • Citro-Phosphate buffered to pH 4.5 in saline, 0.9% w/w at 25° C. • Phosphate buffered to pH 6.5 in saline, 0.9% w/w at 25° C. • Saline, 0.7, 0.9 and 1.1% w/w at 25° C. • Deionised water at 25° C.
RPL554 salts and RPL554, ca 50 mg, were suspended in the various aqueous media, 1 ml, with agitation at the specified temperatures for 24 hours. The solids were isolated and dried in vacuo at 45° C. The retained filtrates were examined by HPLC.
Additional RPL554 methane sulfonate salt, ca 50 mg, was charged to the water mixtures at 25° C. and 37.5° C. in order to afford a suspension. In all other cases, suspensions were obtained.
The solubility of the RPL554 was determined by HPLC using a single point calibration and is expressed as RPL554 and not as the salt and are detailed in Table 6 and Table 7 for the various conditions utilised.

[2] = Intrinsic dissolution of compressed tablet, pH 7.0, 37° C. (Sirius inForm); assay type: physicochemical; details: for mass dissolved: initial peak
Experimental: The dissolution assay (pH-dependent sample dissolution) was investigated using the Sirius inForm.
Dissolution of a compressed tablet of the compound was monitored in a pH 7.0 aqueous dissolution experiment (0.15 M NaCl) at 37° C. using UV-absorption spectroscopy in 2 hour experiments. A tablet with a diameter of 3 mm, requiring approximate weights of 10 mg was compressed under a weight of 100 kg load force. Only one face of the tablet was exposed to the dissolution medium, which contained a 0.01 M acetate/phosphate buffer system to minimise perturbation of the experimental pH from dissolution of the drug.
Stirring of the solution was continuous and at a constant rate of 100 rpm. The absorption data was converted to absolute sample weights using previously determined, pH-dependent, molar extinction coefficients. An appropriate wavelength range was chosen to ensure that spectroscopic data with an absorption value of <1.3 was analysed, avoiding erroneous dissolution results due to saturation of the UV light source.

[3] = Primary particle size analysis by laser light diffraction (Mastersizer 2000); assay type: physicochemical; details: micronised, mean n=3
Experimental: A Mastersizer 2000 fitted with a Scirocco 2000 dry powder dispersion unit (Malvern Instruments Ltd, UK) was used to analyse the primary particle size of the micronised RPL554 and salt variants. The salts (50 mg) were automatically sampled via a vibrating feed control at a feeder rate of 60% and dispersed in compressed air at a pressure of 3 bar.

[4] = Solubility of RPL554 and salts in pMDI propellant systems; assay type: physicochemical
Experimental: Quantitative assessment of the solubility of RPL554 and salt variants in the propellant systems of selected pMDI formulations (three replicates of each formulation) was performed. pMDIs were directly coupled to an adaptor fitted with a 0.20 μm filter unit connected, in series to a 21 G needle, which was inserted via a rubber septum, into a cooled multi-dose glass vial. A 19 G filter needle was inserted through the septum to aid evaporation of propellant from the vial. Prior to the filtration process the vial was cooled in a mixture of dry ice and acetone to ensure that the pressure within the vial was reduced in order to facilitate collection of the output from the pMDI. Ten consecutive actuations of the pMDI were fired through the filter and collected in the vial. Between actuations the canister was shaken for approximately 10 seconds. The pMDI unit was weighed before and after the filtering procedure. The filtrate was stored at room temperature and allowed to evaporate to dryness.
Samples were recovered by carefully rinsing the inside of the vials with 1 mL of recovery solution before transfer to HPLC vials for analysis. The estimated % of RPL554 solubilised within the canister was calculated from the starting mass of RPL554 within the canisters, which in turn was calculated using the theoretical molecular weight values of the RPL554 free base and salt variants shown in Table 13. The theoretical molecular weight estimates of the salts were provided by Verona.

[5] = RPL554 content and content uniformity of 1% w/w lactose powder blends; assay type: physicochemical
Experimental: Batches (approximately 5 g) of 1% w/w RPL554 free base or salt variants: lactose blends were prepared. In brief, the RPL554 free base or salt plus a small quantity of lactose was passed through a 38 μm sieve. The sieved material plus the remaining lactose was mixed in a glass mortar prior to transfer to a stainless steel screw cap jar and further mixing (10 minutes at 46 rpm) conducted using a Turbula blender. The composition of the dry powder blend was 0.05 g API and 4.95 g lactose.
In order to determine the content uniformity of the blends, aliquots (approx. 20 mg) of powder were sampled from each blend, accurately weighed, and diluted to volume in 10 mL volumetric flasks with diluent. The flasks were sonicated for 3 minutes before samples were transferred to HPLC vials for analysis.

[6] = Aerosol performance of DPI formulations (Cyclohaler, NGI); assay type: physicochemical
Experimental: Capsules were hand filled with 20 mg of the 1% w/w RPL554 free base or salt variants: lactose blends, i.e. 200 μg salt per capsule, the fill weight of each capsule was recorded. Due to differences in the molecular weights of the RPL554 salt forms, the amount of RPL554 emitted per actuation varied as a function of molecular weight. The formulations were prepared with no adjustment for differences in molecular weight of the salts.
The powders were delivered via the Cyclohaler® DPI (PCH Pharmachemie, BV, The Netherlands). The Cyclohaler® DPI is a low resistance device and was operated at a flow rate of 90 L/min for 2.7 seconds. The cut off diameters for the NGI collection stages were calculated for the 90 L/min flow rate using the NGI User Guide (MSP Corporation, 2008).
The ED, FPD and FPF were determined from inertial impaction tests performed following the deposition of 5 capsules of each formulation into the NGI. For each capsule tested the combined weight of the Cyclohaler® and capsule was determined before and after operation to check that the dose had been delivered. The NGI was fitted with a pre-separator for these determinations. The central cup of the pre-separator was filled with 15 mL of diluent. Following deposition, the solution was recovered in a 20 mL volumetric flask and made up to volume with diluent. RPL554 was quantitatively recovered from the device, induction port and each of the NGI collection stages with 10 mL of diluent.
The volume of diluent used for each sample was selected to ensure RPL554 concentrations were above the limit of quantitation.

[7] = Physico-chemical characteristics of salt candidates: solubility in water, pH of aqueous suspension/solution, form post water maturation; details: listed as Ethane sulfonic
Experimental: The physico-chemical characteristics of the salt candidates were determined.

[8] = pH 7.0, 0.15 M NaCl, 37° C., listed as ethanesulfonate salt

COc1cc2c(cc1OC)-c1c/c(=N\c3c(C)cc(C)cc3C)n(CCNC(N)=O)c(=O)n1CC2 [Ethanesulfonate, RPL554 ethanesulfonate]
Solubility as RPL554 (mg/ml) in 0.7 w/w % Saline [1]: 1.62 mg/mL
Solubility as RPL554 (mg/ml) in 0.9 w/w % Saline [1]: 0.79 mg/mL
Solubility as RPL554 (mg/ml) in 1.1 w/w % Saline [1]: 1.27 mg/mL
Solubility as RPL554 (mg/ml) in Water ([1]; deionised water): 21.37 mg/mL
dissolution compared with free base / other salts ([2]; 2 hour experiments): higher dissolution than the rest of the salts
mass dissolved ([2]; at 5.7 min): 600 µg
mass dissolved ([2]; at 13 min): 700 µg
Mass of salt (μg) dissolved after 2 hours, Average [2, 8]: 355 µg
Mass of salt (μg) dissolved after 2 hours, Test 1 [2, 8]: 300 µg
Mass of salt (μg) dissolved after 2 hours, Test 2 [2, 8]: 410 µg
D (0.1) (μm) [3]: 0.56 μm
D (0.5) (μm) [3]: 1.43 μm
D (0.9) (μm) [3]: 4.18 μm
Calculated RPL554 solubilised (%) ([4]; in HFA 134): 5.56%
Calculated Solubilised RPL554 μg per 50 μL actuation ([4]; in HFA 134): 9.03 µg
Solubility RPL554 ([4]; in HFA 134, BLQ = below limit of quantitation (0.06 μg/mL)): 126.81 µg/g
Solubility RPL554 (μg/g) ([4]; in HFA 134, BLQ = below limit of quantitation (0.06 μg/mL), listed as ethanesulfonate): quantifiable levels of solubility
Estimated RPL554 solubilised (%) ([4]; in HFA 134 with Ethanol/Tween): 10.96%
Estimated Solubilised RPL554 μg per 50 μL actuation ([4]; in HFA 134 with Ethanol/Tween): 17.81 µg
Solubility RPL554 ([4]; in HFA 134 with Ethanol/Tween): 266.59 µg/g
Calculated RPL554 solubilised (%) ([4]; in HFA 227): BLQ
Calculated Solubilised RPL554 μg per 50 μL actuation ([4]; in HFA 227): BLQ
Solubility RPL554 (μg/g) ([4]; in HFA 227): BLQ
Measured Blend Content (% Theoretical) ([5]; 1% w/w RPL554 variant: lactose powder blend, expressed as RPL554 base): 98.79 % Theoretical
**Adjusted RPL554 Content per capsule ([5]; per 20 mg capsule of 1% w/w lactose blend, adjusted for measured blend content (% theoretical), as RPL554 base): 160.55 µg
†Measured Mass of 1% w/w Blend Delivered per capsule ([6]; Cyclohaler, 5 capsules containing 20 mg powder blend, mass from weight change of capsule-loaded device): 20.18 mg
††RPL554 Emitted (μg) per capsule (B) ([6]; Cyclohaler, NGI, mass determined from HPLC analysis of recovered samples, as RPL554 base): 111.09 µg
Calculated RPL554 Content (μg) per capsule (A) ([6]; calculated from delivered blend mass and measured blend content, as RPL554 base): 162.00 µg
pH of aqueous suspension/solution [7]: 3.04
